# Experimental data published in PubChem BioAssay (NCI).
#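 Test compounds were applied to cells in 96-well plates for 48 hours at 5 doses. Abbreviation: GI50, concentration required for 50% inhibition of growth. TGI is the concentration that stops growth completely.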
# How the values were obtained:
# Assay in all cases: growth of human tumour cells (NCI), 48 h
# [1] = tested on: 786-0 renal
# [2] = tested on: A498 renal
# [3] = tested on: A549 NSCLC
# [4] = tested on: ACHN renal
# [5] = tested on: BT-549 breast
# [6] = tested on: CAKI-1 renal
# [7] = tested on: CCRF-CEM leukemia
# [8] = tested on: COLO 205 colon
# [9] = tested on: DU-145 prostate
# [10] = tested on: EKVX NSCLC
# [11] = tested on: HCC-2998 colon
# [12] = tested on: HCT-116 colon
# [13] = tested on: HCT-15 colon
# [14] = tested on: HL-60(TB) leukemia
# [15] = tested on: HOP-62 NSCLC
# [16] = tested on: HOP-92 NSCLC
# [17] = tested on: HS 578T breast
# [18] = tested on: HT29 colon
# [19] = tested on: IGROV1 ovarian
# [20] = tested on: K-562 leukemia
# [21] = tested on: KM12 colon
# [22] = tested on: LOX IMVI melanoma
# [23] = tested on: M14 melanoma
# [24] = tested on: MALME-3M melanoma
# [25] = tested on: MCF7 breast
# [26] = tested on: MDA-MB-231 breast
# [27] = tested on: MDA-MB-435
# [28] = tested on: MOLT-4 leukemia
# [29] = tested on: NCI-H23 lung
# [30] = tested on: NCI-H460 lung
# [31] = tested on: NCI-H522 lung
# [32] = tested on: NCI/ADR-RES ovarian
# [33] = tested on: OVCAR-3 ovarian
# [34] = tested on: OVCAR-4 ovarian
# [35] = tested on: OVCAR-5 ovarian
# [36] = tested on: OVCAR-8 ovarian
# [37] = tested on: PC-3 prostate
# [38] = tested on: RPMI-8226 leukemia
# [39] = tested on: RXF 393 renal
# [40] = tested on: SF-268 CNS
# [41] = tested on: SF-295 CNS
# [42] = tested on: SF-539 CNS
# [43] = tested on: SK-MEL-2 melanoma
# [44] = tested on: SK-MEL-28 melanoma
# [45] = tested on: SK-MEL-5 melanoma
# [46] = tested on: SK-OV-3 ovarian
# [47] = tested on: SN12C renal
# [48] = tested on: SNB-19 CNS
# [49] = tested on: SR leukemia
# [50] = tested on: SW-620 colon
# [51] = tested on: T-47D breast
# [52] = tested on: TK-10 renal
# [53] = tested on: U251 CNS
# [54] = tested on: UACC-257 melanoma
# [55] = tested on: UACC-62 melanoma
# [56] = tested on: UO-31 renal
smiles,measurement,setting,value
O=C1Nc2ccccc2C1(c1c[nH]c2ccccc12)c1c[nH]c2ccccc12,GI50,[1],2.01 µM
same,TGI,[1],4.11 µM
same,GI50,[2],1.81 µM
same,TGI,[2],3.63 µM
same,GI50,[3],2.18 µM
same,TGI,[3],5.31 µM
same,GI50,[4],1.82 µM
same,TGI,[4],3.58 µM
same,GI50,[5],2.06 µM
same,TGI,[5],4.68 µM
same,GI50,[6],1.85 µM
same,TGI,[6],4.37 µM
same,GI50,[7],4.43 µM
same,TGI,[7],45.8 µM
same,GI50,[8],1.93 µM
same,TGI,[8],3.86 µM
same,GI50,[9],2.09 µM
same,TGI,[9],4.2 µM
same,GI50,[10],1.7 µM
same,TGI,[10],3.84 µM
same,GI50,[11],1.82 µM
same,TGI,[11],3.75 µM
same,GI50,[12],2.48 µM
same,TGI,[12],6.29 µM
same,GI50,[13],2.57 µM
same,TGI,[13],7.69 µM
same,GI50,[14],3.72 µM
same,TGI,[14],37.6 µM
same,GI50,[15],1.93 µM
same,TGI,[15],4.95 µM
same,GI50,[16],1.87 µM
same,TGI,[16],4.95 µM
same,GI50,[17],2.05 µM
same,TGI,[17],5.16 µM
same,GI50,[18],3.23 µM
same,TGI,[18],11.4 µM
same,GI50,[19],2.04 µM
same,TGI,[19],5.09 µM
same,GI50,[20],3.94 µM
same,TGI,[20],> 100 µM
same,GI50,[21],2.3 µM
same,TGI,[21],5.96 µM
same,GI50,[22],1.7 µM
same,TGI,[22],3.32 µM
same,GI50,[23],2.39 µM
same,TGI,[23],7.17 µM
same,GI50,[24],2.47 µM
same,TGI,[24],6.93 µM
same,GI50,[25],2.06 µM
same,TGI,[25],4.74 µM
same,GI50,[26],2.3 µM
same,TGI,[26],5.96 µM
same,GI50,[27],3.34 µM
same,TGI,[27],11.7 µM
same,GI50,[28],3.77 µM
same,TGI,[28],28.9 µM
same,GI50,[29],2.08 µM
same,TGI,[29],4.48 µM
same,GI50,[30],2.84 µM
same,TGI,[30],8.21 µM
same,GI50,[31],2.01 µM
same,TGI,[31],4.71 µM
same,GI50,[32],2.15 µM
same,TGI,[32],5.03 µM
same,GI50,[33],2.14 µM
same,TGI,[33],4.84 µM
same,GI50,[34],2.48 µM
same,TGI,[34],7.45 µM
same,GI50,[35],2.52 µM
same,TGI,[35],7.6 µM
same,GI50,[36],2.15 µM
same,TGI,[36],5.18 µM
same,GI50,[37],2.05 µM
same,TGI,[37],5.75 µM
same,GI50,[38],4.25 µM
same,TGI,[38],38.5 µM
same,GI50,[39],1.94 µM
same,TGI,[39],3.76 µM
same,GI50,[40],2.8 µM
same,TGI,[40],13.9 µM
same,GI50,[41],2.02 µM
same,TGI,[41],4.7 µM
same,GI50,[42],2.07 µM
same,TGI,[42],4.31 µM
same,GI50,[43],2.08 µM
same,TGI,[43],4.51 µM
same,GI50,[44],5.7 µM
same,TGI,[44],20 µM
same,GI50,[45],2.18 µM
same,TGI,[45],4.81 µM
same,GI50,[46],2.72 µM
same,TGI,[46],7.74 µM
same,GI50,[47],1.89 µM
same,TGI,[47],4.29 µM
same,GI50,[48],2.73 µM
same,TGI,[48],8.35 µM
same,GI50,[49],4 µM
same,TGI,[49],> 100 µM
same,GI50,[50],3.22 µM
same,TGI,[50],13.1 µM
same,GI50,[51],1.99 µM
same,TGI,[51],4.69 µM
same,GI50,[52],2.31 µM
same,TGI,[52],5.41 µM
same,GI50,[53],2.69 µM
same,TGI,[53],7.49 µM
same,GI50,[54],3.67 µM
same,TGI,[54],16.6 µM
same,GI50,[55],1.96 µM
same,TGI,[55],5.09 µM
same,GI50,[56],1.18 µM
same,TGI,[56],3.04 µM
